Data: US8993616B2, “(aza)indole derivative and use thereof for medical purposes” (Kissei Pharmaceutical Co., Ltd., priority 2007, dated 2015)
pIC50: −log10 of the molar value.

Molecular target: Xanthine oxidase (from bovine milk, Sigma) (Bos taurus (Bovine), UniProt P80457)
Test: Xanthine oxidase inhibitory activity
Format: biochemical
Details: xanthine substrate, 10 minutes at room temperature, absorbance at 290 nm
Experimental: (1) Preparation of Test Compounds
Test compounds were dissolved in DMSO (Wako) at 40 mM concentration and then diluted to intended concentrations with phosphate-buffered saline (PBS).
(2) Method for Measurement
Xanthine oxidase (from bovine milk, Sigma) was prepared with phosphate-buffered saline (PBS) at 0.02 units/mL, and then the solution was added to 96 well plates at 50 μL/well. In addition, test compounds diluted with PBS were added at 50 μL/well. Xanthine (Wako) at 200 μM prepared with PBS was added at 100 μL/well, and the reaction was conducted for 10 minutes at room temperature. Absorbance at 290 nm was measured using a microplate reader SpectraMax Plus 384 (Molecular device). The absorbance under a condition without xanthine is 0%, and control without test compounds is 100%. Fifty % inhibitory concentration of a test compound (IC50) was calculated (Table 60). Ex. No in the table indicates Example number.

Sequence of Xanthine oxidase (from bovine milk, Sigma) (P80457 whole entry): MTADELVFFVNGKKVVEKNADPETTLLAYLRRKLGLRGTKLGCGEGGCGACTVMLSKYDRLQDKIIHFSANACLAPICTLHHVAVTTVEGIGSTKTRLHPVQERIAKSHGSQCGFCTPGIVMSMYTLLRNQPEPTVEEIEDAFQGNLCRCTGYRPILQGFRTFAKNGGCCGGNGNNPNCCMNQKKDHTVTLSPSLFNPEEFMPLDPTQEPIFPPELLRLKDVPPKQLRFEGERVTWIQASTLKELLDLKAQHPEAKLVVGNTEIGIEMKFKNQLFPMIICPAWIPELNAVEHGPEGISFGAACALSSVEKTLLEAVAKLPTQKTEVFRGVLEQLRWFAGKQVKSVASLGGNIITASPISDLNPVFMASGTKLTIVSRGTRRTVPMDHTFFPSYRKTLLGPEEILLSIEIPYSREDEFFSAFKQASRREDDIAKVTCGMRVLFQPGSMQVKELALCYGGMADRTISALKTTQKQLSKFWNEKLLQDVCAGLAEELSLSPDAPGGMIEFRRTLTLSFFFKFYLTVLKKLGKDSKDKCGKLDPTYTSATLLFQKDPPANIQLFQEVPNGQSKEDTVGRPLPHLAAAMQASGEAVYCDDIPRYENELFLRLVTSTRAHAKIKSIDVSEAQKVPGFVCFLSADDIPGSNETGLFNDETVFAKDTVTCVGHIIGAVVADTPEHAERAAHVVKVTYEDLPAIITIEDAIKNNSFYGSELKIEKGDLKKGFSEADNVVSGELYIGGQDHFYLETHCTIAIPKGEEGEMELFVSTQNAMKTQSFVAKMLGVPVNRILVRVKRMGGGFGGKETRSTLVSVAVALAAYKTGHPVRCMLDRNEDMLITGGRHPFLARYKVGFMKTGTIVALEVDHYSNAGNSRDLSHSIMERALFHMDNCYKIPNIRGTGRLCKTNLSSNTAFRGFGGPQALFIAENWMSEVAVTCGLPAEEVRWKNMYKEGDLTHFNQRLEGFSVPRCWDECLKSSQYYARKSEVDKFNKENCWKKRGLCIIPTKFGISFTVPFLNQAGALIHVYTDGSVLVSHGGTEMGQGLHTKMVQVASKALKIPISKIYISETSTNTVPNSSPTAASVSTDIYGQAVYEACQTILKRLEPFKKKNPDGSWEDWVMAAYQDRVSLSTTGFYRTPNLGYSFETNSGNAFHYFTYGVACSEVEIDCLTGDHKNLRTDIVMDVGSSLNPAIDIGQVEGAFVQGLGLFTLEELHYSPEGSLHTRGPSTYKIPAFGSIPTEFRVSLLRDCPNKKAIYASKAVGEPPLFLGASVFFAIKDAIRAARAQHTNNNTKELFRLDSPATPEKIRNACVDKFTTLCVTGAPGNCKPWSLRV

`N#Cc1cn(-c2ccc(C(=O)O)c(O)c2)c2ccc(OCCO)cc12` [Example 210] and `COCCOc1ccc2c(c1)c(C#N)cn2-c1ccc(C(=O)O)c(O)c1` [Example 211] are within 0.2 log units of each other in pIC50: 8.15 for the first, 8.21 for the second.

`Cc1nc(-n2cc(C#N)c3ccccc32)sc1C(=O)O` [Example 47, 2-(3-Cyanoindol-1-yl)-4-methylthiazole-5-carboxylic acid] and `COCOc1cc(-n2cc(C#N)c3ccccc32)ccc1C(=O)O` [Example 308] are within 0.2 log units of each other in pIC50: 7.23 for the first, 7.35 for the second.

`COc1ccccc1-c1ccc2c(c1)c(C#N)cn2-c1ccc(C(=O)O)cc1` [Example 157] and `N#Cc1cn(-c2ccc(C(=O)O)cc2)c2ccc(-c3ccccc3)cc12` [Example 150] are within 0.2 log units of each other in pIC50: 7.85 for the first, 7.69 for the second.

`N#Cc1cn(-c2ccc(C(=O)O)cc2)c2ccc(OCCOc3ccccc3)cc12` [Example 154] and `COCCOc1ccc2c(c1)c(C#N)cn2-c1ccc(C(=O)O)cc1` [Example 153] are within 0.2 log units of each other in pIC50: 7.72 for the first, 7.91 for the second.

Compared with `Cc1cc2c(cc1OCc1ccccc1)c(C#N)cn2-c1ccc(C(=O)O)cc1` [Example 149], `N#Cc1cn(-c2ccc(C(=O)O)cc2)c2cccc(OCc3ccccc3)c12` [Example 19, 4-(4-Benzyloxy-3-cyanoindol-1-yl)benzoic acid] is 0.40 log units lower in pIC50: 7.42 for the first, 7.02 for the second. The first is the more potent here.

`Cc1ccc2c(c1)c(C#N)cn2-c1ccc(C(=O)O)c(O)c1` [Example 189] and `N#Cc1cn(-c2ccc(C(=O)O)c(O)c2)c2ccc(Cl)cc12` [Example 197] are within 0.2 log units of each other in pIC50: 7.86 for the first, 8.05 for the second.

`CN(C)CCCOc1ccc2c(c1)c(C#N)cn2-c1ccc(C(=O)O)cc1` [Example 177] and `N#Cc1cn(-c2ccc(C(=O)O)cc2)c2ccc(OCCCN)cc12` [Example 181] are within 0.2 log units of each other in pIC50: 7.79 for the first, 7.76 for the second.

`CC(=O)NCCOc1ccc2c(C#N)cn(-c3ccc(C(=O)O)c(O)c3)c2c1` [Example 12, 4-[6-(2-Acetylaminoethyloxy)-3-cyanoindol-1-yl]-2-hydroxybenzoic acid] and `CC(=O)NCCCOc1ccc2c(C#N)cn(-c3ccc(C(=O)O)c(O)c3)c2c1` [Example 239] are within 0.2 log units of each other in pIC50: 8.15 for the first, 8.19 for the second.

`N#Cc1cn(-c2ccc(C(=O)O)cc2)c2ccc(OCc3ccsc3)cc12` [Example 176] and `N#Cc1cn(-c2ccc(C(=O)O)cc2)c2ccc(OCc3cccs3)cc12` [Example 27, 4-[3-Cyano-5-(thiophen-2-ylmethyloxy)indol-1-yl]benzoic acid] are within 0.2 log units of each other in pIC50: 7.74 for the first, 7.84 for the second.

Compared with `N#Cc1cn(-c2ccc(C(=O)O)cc2)c2ccc(OCC(=O)O)cc12` [Example 170], `N#Cc1cn(-c2ccc(C(=O)O)cc2)c2ccc(OCCO)cc12` [Example 171] is 0.26 log units higher in pIC50: 7.70 for the first, 7.96 for the second. The second is the more potent here.

`N#Cc1cn(-c2ccc(C(=O)O)c(O)c2)c2ccc(OCc3ccccc3)cc12` [Example 200] and `N#Cc1cn(-c2ccc(C(=O)O)c(O)c2)c2cc(OCc3ccccc3)ccc12` [Example 5, 4-(6-Benzyloxy-3-cyanoindol-1-yl)-2-hydroxybenzoic acid] are within 0.2 log units of each other in pIC50: 7.40 for the first, 7.47 for the second.

`Cc1cc2c(C#N)cn(-c3ccc(C(=O)O)cc3)c2cc1Cl` [Example 295] and `Cc1cc2c(C#N)cn(-c3ccc(C(=O)O)cc3)c2cc1F` [Example 298] are within 0.2 log units of each other in pIC50: 8.05 for the first, 7.92 for the second.

Going from `CN(C)c1ccc(-c2ccc3c(c2)c(C#N)cn3-c2ccc(C(=O)O)cc2)cc1` [Example 165] to `CC(=O)c1ccc(-c2ccc3c(c2)c(C#N)cn3-c2ccc(C(=O)O)cc2)cc1` [Example 166], the pIC50 rises from 6.95 to 8.14 (1.19 log units).

`N#Cc1cn(-c2ccc(C(=O)O)c(O)c2)c2cc(-c3ccccc3)ccc12` [Example 199] and `N#Cc1cn(-c2ccc(C(=O)O)c(O)c2)c2ccc(-c3ccccc3)cc12` [Example 198] are within 0.2 log units of each other in pIC50: 7.31 for the first, 7.26 for the second.

Compared with `N#Cc1cn(-c2ccc(C(=O)O)cc2)c2cc(-c3ccccc3)ccc12` [Example 155], `N#Cc1cn(-c2ccc(C(=O)O)cc2)c2cccc(-c3ccccc3)c12` [Example 286] is 0.29 log units higher in pIC50: 6.95 for the first, 7.24 for the second.

First: N#Cc1cn(-c2ccc(C(=O)O)cc2)c2ccc(-c3ccc(O)c(Cl)c3)cc12 [Example 179]
Second: N#Cc1cn(-c2ccc(C(=O)O)cc2)c2ccc(-c3ccncc3)cc12 [Example 159]
The pIC50 of the first is 0.26 log units higher: 8.10 for the first, 7.84 for the second.

Compared with `CCOCCOc1ccc2c(c1)c(C#N)cn2-c1ccc(C(=O)O)cc1` [Example 174], `N#Cc1cn(-c2ccc(C(=O)O)cc2)c2ccc(OCCCO)cc12` [Example 172] is 0.49 log units higher in pIC50: 7.61 for the first, 8.10 for the second.

Going from `CN(C)c1cc2c(C#N)cn(-c3ccc(C(=O)O)cc3)c2cc1C(F)(F)F` [Example 300] to `COc1cc2c(C#N)cn(-c3ccc(C(=O)O)cc3)c2cc1F` [Example 287], the pIC50 rises from 7.02 to 7.80 (0.78 log units). The second is the more potent here.

First: N#Cc1cn(-c2ccc(C(=O)O)cc2)c2ccc(C(=O)NCc3ccccc3)cc12 [Example 160]
Second: CN(Cc1ccccc1)C(=O)c1ccc2c(c1)c(C#N)cn2-c1ccc(C(=O)O)cc1 [Example 161]
The pIC50 of the first is 0.65 log units higher: 7.95 for the first, 7.30 for the second.

`N#Cc1cn(-c2ccc(C(=O)O)cc2)c2ccc(C(=O)O)cc12` [Example 29, 4-(5-Carboxy-3-cyanoindol-1-yl)benzoic acid] and `CN(C)C(=O)c1ccc2c(c1)c(C#N)cn2-c1ccc(C(=O)O)cc1` [Example 34, 4-(3-Cyano-5-dimethylaminocarbonylindol-1-yl)benzoic acid] are within 0.2 log units of each other in pIC50: 7.36 for the first, 7.32 for the second.

`N#Cc1cn(-c2ccc(C(=O)O)c(O)c2)c2cc(Cl)ccc12` [Example 190] and `N#Cc1cn(-c2ccc(C(=O)O)c(O)c2)c2cc(O)ccc12` [Example 212] are within 0.2 log units of each other in pIC50: 8.27 for the first, 8.29 for the second.

`CC(C)Oc1cc2c(C#N)cn(-c3ccc(C(=O)O)cc3)c2cc1F` [Example 303] and `COc1cc2c(C#N)cn(-c3ccc(C(=O)O)cc3)c2cc1Cl` [Example 293] are within 0.2 log units of each other in pIC50: 8.00 for the first, 7.85 for the second.

`CC(C)Oc1ccc2c(c1)c(C#N)cn2-c1ccc(C(=O)O)c(O)c1` [Example 209] and `CC(C)Oc1ccc2c(C#N)cn(-c3ccc(C(=O)O)c(O)c3)c2c1` [Example 224] are within 0.2 log units of each other in pIC50: 7.96 for the first, 8.01 for the second.

`N#Cc1cn(-c2ccc(C(=O)O)c(O)c2)c2cccc(OCc3ccccc3)c12` [Example 202] and `N#Cc1cn(-c2ccc(C(=O)O)c(O)c2)c2cc(OCCNC(=O)OCc3ccccc3)ccc12` [Example 8, 4-[6-(2-Benzyloxycarbonylaminoethyloxy)-3-cyanoindol-1-yl]-2-hydroxybenzoic acid] are within 0.2 log units of each other in pIC50: 7.21 for the first, 7.38 for the second.

Going from `COc1ccc2c(C#N)cn(-c3ccc(C(=O)O)c(O)c3)c2c1` [Example 217] to `N#Cc1cn(-c2ccc(C(=O)O)c(O)c2)c2cc(OCCN)ccc12` [Example 9, 4-[6-(2-Aminoethyloxy)-3-cyanoindol-1-yl]-2-hydroxybenzoic acid], the pIC50 falls from 8.22 to 7.90 (0.32 log units). The first is the more potent here.

`N#Cc1cccc2c1c(C#N)cn2-c1ccc(C(=O)O)c(O)c1` [Example 208] and `N#Cc1ccc2c(c1)c(C#N)cn2-c1ccc(C(=O)O)c(O)c1` [Example 206] are within 0.2 log units of each other in pIC50: 8.22 for the first, 8.14 for the second.

First: N#Cc1cn(-c2ccc(C(=O)O)c(O)c2)c2cc(OCc3ccc(Cl)cc3)ccc12 [Example 232]
Second: N#Cc1cn(-c2ccc(C(=O)O)c(O)c2)c2cc(OCc3ccccc3Cl)ccc12 [Example 230]
The pIC50 of the first is 0.20 log units higher: 7.37 for the first, 7.17 for the second.

`CS(=O)(=O)Nc1ccc(-c2ccc3c(c2)c(C#N)cn3-c2ccc(C(=O)O)cc2)cc1` [Example 183] and `CS(=O)(=O)c1ccc(-c2ccc3c(c2)c(C#N)cn3-c2ccc(C(=O)O)cc2)cc1` [Example 167] are within 0.2 log units of each other in pIC50: 8.12 for the first, 7.96 for the second.

`N#Cc1cn(-c2ccc(C(=O)O)c(O)c2)c2cc(OCCCO)ccc12` [Example 228] and `N#Cc1cn(-c2ccc(C(=O)O)c(O)c2)c2cc(OCCCN)ccc12` [Example 227] are within 0.2 log units of each other in pIC50: 8.12 for the first, 7.98 for the second.

Going from `CC(C)COc1ccc2c(c1)c(C#N)cn2-c1ccc(C(=O)O)c(O)c1` [Example 205] to `CCOc1ccc2c(c1)c(C#N)cn2-c1ccc(C(=O)O)c(O)c1` [Example 214], the pIC50 rises from 7.56 to 7.96 (0.40 log units).

Compared with `CCOCCOc1ccc2c(C#N)cn(-c3ccc(C(=O)O)c(O)c3)c2c1` [Example 219], `CN(C)CCOc1ccc2c(C#N)cn(-c3ccc(C(=O)O)c(O)c3)c2c1` [Example 235] is 0.23 log units lower in pIC50: 8.08 for the first, 7.85 for the second.

`CS(=O)(=O)NCCOc1ccc2c(C#N)cn(-c3ccc(C(=O)O)c(O)c3)c2c1` [Example 238] and `N#Cc1cn(-c2ccc(C(=O)O)c(O)c2)c2cc(OCC3CC3)ccc12` [Example 233] are within 0.2 log units of each other in pIC50: 8.08 for the first, 8.14 for the second.

Going from `N#Cc1cn(-c2ccc(C(=O)O)c(O)c2)c2cc(C(F)(F)F)ccc12` [Example 195] to `N#Cc1ccc2c(C#N)cn(-c3ccc(C(=O)O)c(O)c3)c2c1` [Example 207], the pIC50 rises from 7.84 to 8.14 (0.30 log units).

`N#Cc1cn(-c2ccc(C(=O)O)cc2)c2ccc(CO)cc12` [Example 32, 4-(3-Cyano-5-hydroxymethylindol-1-yl)benzoic acid] and `N#Cc1cn(-c2ccc(C(=O)O)cc2)c2cc(CO)ccc12` [Example 184] are within 0.2 log units of each other in pIC50: 7.04 for the first, 6.86 for the second.

`CS(=O)(=O)Nc1ccc2c(c1)c(C#N)cn2-c1ccc(C(=O)O)cc1` [Example 182] and `CS(=O)(=O)c1ccc(COc2ccc3c(c2)c(C#N)cn3-c2ccc(C(=O)O)cc2)cc1` [Example 178] are within 0.2 log units of each other in pIC50: 7.79 for the first, 7.89 for the second.

Going from `N#Cc1cn(-c2ccc(C(=O)O)c(O)c2)c2c(F)cccc12` [Example 318] to `N#Cc1cn(-c2ccc(C(=O)O)c(O)c2)c2ccc(O)cc12` [Example 201], the pIC50 rises from 7.92 to 8.26 (0.34 log units). The second is the more potent here.

Going from `CC(C)(C)OC(=O)NCCCOc1ccc2c(c1)c(C#N)cn2-c1ccc(C(=O)O)cc1` [Example 180] to `N#Cc1cn(-c2ccc(C(=O)O)c(O)c2)c2ccc(OCC(=O)O)cc12` [Example 213], the pIC50 rises from 7.54 to 8.14 (0.60 log units).

`N#Cc1cn(-c2ccc(C(=O)O)c(O)c2)c2cc(OCCOc3ccccc3)ccc12` [Example 222] gave a pIC50 of 7.38.
